US10414808B2 (priority 2012, dated 2019)
Read-outs that look alike come from different tables or passages of the source.

What was measured:
[1] = molecular target: Nav1.7 (Homo sapiens, UniProt Q15858, W1161R); assay: cell-based
[2] = molecular target: Nav1.2 (Homo sapiens, UniProt Q99250); assay: cell-based
[3] = test system: rat model of nociceptive pain; settings: in vivo
[4] = test system: rat model of monoarthritis induced by 50% intraplantar CFA; settings: in vivo
[5] = test system: mouse model of inflammatory pain (100% CFA); settings: in vivo
[6] = test system: mouse spared nerve injury model of neuropathic pain; settings: in vivo
[7] = mouse, in vivo
[8] = test system: mice; settings: mouse, in vivo
[9] = test system: mouse model of CFA-induced inflammatory pain; settings: in vivo
[10] = test system: rodent models of acute and inflammatory pain; settings: in vivo; cited from earlier work
[11] = in vivo; settings: mouse, sc
[12] = molecular target: hNav1.7 channel (Homo sapiens, UniProt Q15858, W1161R); assay type: cell-based

Sequence of Nav1.7 (Q15858 whole entry W1161R, looked up): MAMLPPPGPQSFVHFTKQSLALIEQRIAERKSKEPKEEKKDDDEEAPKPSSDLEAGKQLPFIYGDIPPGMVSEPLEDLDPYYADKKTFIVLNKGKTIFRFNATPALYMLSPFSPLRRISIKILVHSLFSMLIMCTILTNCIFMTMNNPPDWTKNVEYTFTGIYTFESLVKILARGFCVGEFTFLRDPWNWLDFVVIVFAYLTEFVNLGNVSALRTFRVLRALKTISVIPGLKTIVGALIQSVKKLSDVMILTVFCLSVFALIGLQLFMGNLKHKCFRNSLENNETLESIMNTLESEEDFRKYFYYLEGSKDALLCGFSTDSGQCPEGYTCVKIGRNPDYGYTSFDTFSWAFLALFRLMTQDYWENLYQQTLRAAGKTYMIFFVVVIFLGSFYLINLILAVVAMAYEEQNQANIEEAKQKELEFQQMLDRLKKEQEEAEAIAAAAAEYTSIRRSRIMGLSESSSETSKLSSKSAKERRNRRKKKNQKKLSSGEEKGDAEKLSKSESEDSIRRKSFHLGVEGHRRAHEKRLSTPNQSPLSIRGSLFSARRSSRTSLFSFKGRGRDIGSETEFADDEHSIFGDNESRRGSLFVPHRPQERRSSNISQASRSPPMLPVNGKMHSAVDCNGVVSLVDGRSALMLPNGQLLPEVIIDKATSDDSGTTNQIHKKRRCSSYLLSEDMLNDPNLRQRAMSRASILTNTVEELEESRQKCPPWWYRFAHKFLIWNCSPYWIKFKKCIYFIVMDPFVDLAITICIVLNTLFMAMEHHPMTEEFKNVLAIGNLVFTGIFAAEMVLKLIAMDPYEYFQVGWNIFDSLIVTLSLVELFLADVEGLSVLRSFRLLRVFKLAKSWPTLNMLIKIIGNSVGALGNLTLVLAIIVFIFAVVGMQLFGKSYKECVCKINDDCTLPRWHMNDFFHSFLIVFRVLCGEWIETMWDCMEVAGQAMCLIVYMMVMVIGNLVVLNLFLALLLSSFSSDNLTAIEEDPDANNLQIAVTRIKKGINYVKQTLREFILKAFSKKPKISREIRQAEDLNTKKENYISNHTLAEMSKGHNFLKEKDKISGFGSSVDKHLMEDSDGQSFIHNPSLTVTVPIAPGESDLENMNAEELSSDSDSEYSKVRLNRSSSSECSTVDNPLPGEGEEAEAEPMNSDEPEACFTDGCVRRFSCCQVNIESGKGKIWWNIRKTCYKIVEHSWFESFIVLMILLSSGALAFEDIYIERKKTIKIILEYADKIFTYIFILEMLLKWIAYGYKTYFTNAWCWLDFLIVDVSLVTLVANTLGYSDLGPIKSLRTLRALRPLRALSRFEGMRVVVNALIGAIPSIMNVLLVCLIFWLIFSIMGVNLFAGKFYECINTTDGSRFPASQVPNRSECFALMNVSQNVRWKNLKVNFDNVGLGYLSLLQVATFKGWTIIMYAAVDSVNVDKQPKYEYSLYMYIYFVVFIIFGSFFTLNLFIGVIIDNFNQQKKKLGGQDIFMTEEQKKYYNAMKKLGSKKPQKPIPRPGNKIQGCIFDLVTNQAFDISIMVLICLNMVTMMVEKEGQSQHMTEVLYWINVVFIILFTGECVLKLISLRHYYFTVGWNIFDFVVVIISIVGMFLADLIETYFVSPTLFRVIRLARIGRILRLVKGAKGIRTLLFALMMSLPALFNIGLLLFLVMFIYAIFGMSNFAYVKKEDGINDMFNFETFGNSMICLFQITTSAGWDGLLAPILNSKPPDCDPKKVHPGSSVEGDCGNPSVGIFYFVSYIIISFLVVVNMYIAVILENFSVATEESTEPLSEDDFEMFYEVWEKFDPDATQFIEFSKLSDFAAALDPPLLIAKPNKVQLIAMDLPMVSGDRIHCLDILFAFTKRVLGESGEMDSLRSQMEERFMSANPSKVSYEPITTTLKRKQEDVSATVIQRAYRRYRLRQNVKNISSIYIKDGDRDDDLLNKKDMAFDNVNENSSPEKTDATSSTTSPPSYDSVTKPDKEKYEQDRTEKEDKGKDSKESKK
Sequence of Nav1.2 (Q99250 whole entry, looked up): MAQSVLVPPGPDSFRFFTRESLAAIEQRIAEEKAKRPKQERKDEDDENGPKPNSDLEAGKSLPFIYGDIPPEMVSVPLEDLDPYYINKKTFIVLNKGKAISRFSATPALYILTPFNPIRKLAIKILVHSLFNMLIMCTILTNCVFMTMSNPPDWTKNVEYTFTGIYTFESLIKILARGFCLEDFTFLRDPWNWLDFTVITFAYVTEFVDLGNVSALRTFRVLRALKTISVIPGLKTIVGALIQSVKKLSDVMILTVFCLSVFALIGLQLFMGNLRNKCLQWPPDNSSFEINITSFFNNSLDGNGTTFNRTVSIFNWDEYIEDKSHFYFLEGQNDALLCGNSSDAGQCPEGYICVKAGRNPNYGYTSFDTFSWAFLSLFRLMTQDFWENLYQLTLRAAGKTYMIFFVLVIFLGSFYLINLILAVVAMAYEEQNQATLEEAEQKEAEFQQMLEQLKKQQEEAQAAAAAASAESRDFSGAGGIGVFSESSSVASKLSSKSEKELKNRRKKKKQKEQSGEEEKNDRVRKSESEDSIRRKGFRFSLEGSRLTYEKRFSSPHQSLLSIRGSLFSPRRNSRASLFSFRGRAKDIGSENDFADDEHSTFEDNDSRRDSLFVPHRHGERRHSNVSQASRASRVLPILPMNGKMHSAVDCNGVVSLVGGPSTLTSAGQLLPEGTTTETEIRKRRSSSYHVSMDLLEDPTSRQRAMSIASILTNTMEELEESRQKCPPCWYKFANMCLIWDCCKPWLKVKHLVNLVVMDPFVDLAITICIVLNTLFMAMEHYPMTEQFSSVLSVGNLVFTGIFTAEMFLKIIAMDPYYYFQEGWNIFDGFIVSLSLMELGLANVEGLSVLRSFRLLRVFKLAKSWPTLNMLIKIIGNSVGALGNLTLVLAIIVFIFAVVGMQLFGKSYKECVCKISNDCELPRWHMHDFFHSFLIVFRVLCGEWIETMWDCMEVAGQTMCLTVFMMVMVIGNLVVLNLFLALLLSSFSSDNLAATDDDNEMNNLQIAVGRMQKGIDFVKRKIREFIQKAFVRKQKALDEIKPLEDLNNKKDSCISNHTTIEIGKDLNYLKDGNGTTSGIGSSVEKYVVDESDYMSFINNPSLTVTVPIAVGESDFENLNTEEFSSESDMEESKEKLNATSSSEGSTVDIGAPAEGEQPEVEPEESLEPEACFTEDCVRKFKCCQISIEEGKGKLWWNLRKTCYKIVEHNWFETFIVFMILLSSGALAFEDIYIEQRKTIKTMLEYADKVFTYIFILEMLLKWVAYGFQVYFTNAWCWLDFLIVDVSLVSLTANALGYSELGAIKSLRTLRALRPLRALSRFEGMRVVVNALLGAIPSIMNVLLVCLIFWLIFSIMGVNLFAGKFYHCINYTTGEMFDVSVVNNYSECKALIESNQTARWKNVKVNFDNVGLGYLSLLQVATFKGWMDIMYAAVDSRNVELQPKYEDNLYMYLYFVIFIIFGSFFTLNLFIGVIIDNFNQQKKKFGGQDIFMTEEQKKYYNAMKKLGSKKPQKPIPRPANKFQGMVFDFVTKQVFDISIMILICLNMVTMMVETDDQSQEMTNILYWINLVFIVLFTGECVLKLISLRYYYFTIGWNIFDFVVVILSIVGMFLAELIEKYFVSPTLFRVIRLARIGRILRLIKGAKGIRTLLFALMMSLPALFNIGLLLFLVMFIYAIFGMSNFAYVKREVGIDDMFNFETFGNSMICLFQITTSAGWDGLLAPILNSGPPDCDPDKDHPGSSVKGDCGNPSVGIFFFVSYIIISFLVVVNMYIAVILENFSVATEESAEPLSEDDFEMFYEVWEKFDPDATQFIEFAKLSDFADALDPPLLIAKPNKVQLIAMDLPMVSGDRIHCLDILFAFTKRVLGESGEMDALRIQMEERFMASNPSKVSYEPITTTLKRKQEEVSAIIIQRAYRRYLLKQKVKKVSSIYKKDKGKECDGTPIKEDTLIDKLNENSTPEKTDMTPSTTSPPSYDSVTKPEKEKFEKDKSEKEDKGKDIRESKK

SMILES: CC[C@H](C)[C@H](NC(=O)[C@H](CCC(N)=O)NC(=O)[C@H](Cc1ccc(O)cc1)NC(=O)[C@H](CCCCN)NC(=O)[C@@H]1CSSC[C@@H]2NC(=O)[C@H](CCC(N)=O)NC(=O)[C@H](CC(=O)O)NC(=O)[C@H](CC(N)=O)NC(=O)[C@H](CO)NC(=O)[C@@H]3CCCN3C(=O)[C@H](CC(N)=O)NC(=O)[C@@H]3CSSC[C@H](NC(=O)[C@H](C(C)C)NC(=O)[C@H](CC(C)C)NC(=O)[C@H](CCCCN)NC(=O)[C@H](CO)NC(=O)[C@H](CO)NC(=O)[C@H](CCCCN)NC(=O)[C@H](CSSC[C@H](NC(=O)[C@H](C)NC(=O)[C@@H]4CCCN4C(=O)CN)C(=O)N[C@@H](CC(C)C)C(=O)N[C@@H](CCC(=O)O)C(=O)N[C@@H]([C@@H](C)CC)C(=O)N[C@@H](Cc4ccccc4)C(=O)N[C@@H](CCCCN)C(=O)N[C@@H](C)C(=O)N3)NC2=O)C(=O)N[C@@H](CO)C(=O)N[C@@H](CCCNC(=N)N)C(=O)N[C@@H](CCCCN)C(=O)N[C@@H]([C@@H](C)O)C(=O)N[C@@H](CCCNC(=N)N)C(=O)N[C@@H](Cc2c[nH]c3ccccc23)C(=O)N1)C(=O)NCC(=O)N[C@@H](CCCCN)C(=O)O [NV1D82 | 243]
- IC50 [1]: 0.04 µM
- IC50 [2]: 0.05 µM

SMILES: CSCC[C@@H]1NC(=O)CNC(=O)[C@H](CCC(=O)O)NC(=O)[C@@H]2CSSC[C@H](NC(=O)[C@@H](N)Cc3ccc(O)cc3)C(=O)N[C@@H](CCC(N)=O)C(=O)N[C@@H](CCCCN)C(=O)N[C@@H](Cc3c[nH]c4ccccc34)C(=O)N[C@@H](CCSC)C(=O)N[C@@H](Cc3c[nH]c4ccccc34)C(=O)N[C@@H]([C@@H](C)O)C(=O)N[C@H]3CSSC[C@H](NC(=O)[C@H](C(C)C)NC1=O)C(=O)N[C@@H](CCCNC(=N)N)C(=O)N[C@@H](CC(C)C)C(=O)N[C@@H](Cc1c[nH]c4ccccc14)C(=O)N[C@H](C(=O)N[C@@H](CCCCN)C(=O)N[C@@H](CCCCN)C(=O)N[C@@H](CCCCN)C(=O)N[C@@H](CC(C)C)C(=O)N[C@@H](Cc1c[nH]c4ccccc14)C(=O)O)CSSC[C@H](NC(=O)[C@H](CCCCN)NC(=O)[C@H](CCCNC(=N)N)NC(=O)[C@H](CCC(=O)O)NC(=O)[C@H](CO)NC(=O)[C@H](CC(=O)O)NC3=O)C(=O)N2 [ProTx-II]
- AUC of gram thresholds (mean vehicle AUC subtracted), comparison between dose groups [3]: significantly different except between the 0.3 and 3 nmole doses
- paw pressure threshold vs vehicle-treated animals ([3]; sc): increased thresholds significantly
- paw pressure threshold, dose dependence ([3]; sc): dose-dependent increase
- tactile threshold vs vehicle injected animals [4]: significantly increased
- CFA-induced tactile allodynia [5]: profound anti-allodynic effect
- efficacy in tactile (Von Frey) pain assay [6]: not efficacious
- Est Cp [7]: BLOQ
- Behav Obs [8]: normal
- tolerability [8]: well tolerated
- motor impairment [9]: did not produce any obvious motor impairment
- tactile threshold [9]: significantly increased
- thermal threshold [9]: significantly increased
- efficacy in rodent models of acute and inflammatory pain [10]: non-efficacious
- level at time molar at 48 h ([11]; 45.6 ug/day): 0.05 µM
- level at time molar at 120 h ([11]; 45.6 ug/day): 0.055 µM
- level at time molar at 168 h ([11]; 45.6 ug/day): 0.083 µM
- level at time molar at 72 h ([11]; 228 ug/day): 0.224 µM

SMILES: CC[C@H](C)[C@H](NC(=O)[C@H](CCC(N)=O)NC(=O)[C@H](Cc1ccc(O)cc1)NC(=O)[C@H](CCCCN)NC(=O)[C@@H]1CSSC[C@@H]2NC(=O)[C@H](CCC(N)=O)NC(=O)[C@H](CC(=O)O)NC(=O)[C@H](CC(N)=O)NC(=O)[C@H](CO)NC(=O)[C@@H]3CCCN3C(=O)[C@H](CC(N)=O)NC(=O)[C@@H]3CSSC[C@H](NC(=O)[C@H](C(C)C)NC(=O)[C@H](CC(C)C)NC(=O)[C@H](CCCCN)NC(=O)[C@H](CO)NC(=O)[C@H](CO)NC(=O)[C@H](CCCCN)NC(=O)[C@H](CSSC[C@H](NC(=O)[C@H](CCC(=O)O)NC(=O)[C@@H]4CCCN4C(=O)CN)C(=O)N[C@@H](CC(C)C)C(=O)N[C@@H](CCC(=O)O)C(=O)N[C@@H]([C@@H](C)CC)C(=O)N[C@@H](Cc4ccccc4)C(=O)N[C@@H](CCCCN)C(=O)N[C@@H](C)C(=O)N3)NC2=O)C(=O)N[C@@H](CO)C(=O)N[C@@H](CCCNC(=N)N)C(=O)N[C@@H](CCCCN)C(=O)N[C@@H]([C@@H](C)O)C(=O)N[C@@H](CCCNC(=N)N)C(=O)N[C@@H](Cc2c[nH]c3ccccc23)C(=O)N1)C(=O)NCC(=O)N[C@@H](CCCCN)C(=O)O [Recombinant Huwentoxin-IV]
- ratio of IC50 for Nav1.2 to IC50 for Nav1.7 [12]: about 2.143

SMILES: NCC1(CC(=O)O)CCCCC1 [gabapentin]
- CFA-induced tactile allodynia ([5]; po, 150 mg/kg): reduced tactile allodynia albeit to a lesser extent than ProTx-II
